Measurements published in patent publication US20240246937A1 (MERCK SHARP & DOHME LLC, priority 2021, published 2024).

Target: recombinant IL4I1 (Homo sapiens (Human), UniProt Q96RQ9)
Assay: IL4I1 Enzymatic Assay (Amplex Red/HRP coupled fluorescence detection of H2O2)
Format: biochemical
Details: 240 min; recombinant IL4I1, four-hour pre-incubation with compound
Summary of the method: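 Ten-point, 1:3 compound titrations were fitted by four-parameter sigmoidal regression to give EC50. Resorufin fluorescence (544/590 nm) from Amplex Red/HRP-coupled H2O2 detection was read 120 min after adding 1 mM each aromatic amino acid to 1 nM IL4I1, following a 4 h compound pre-incubation in pH 7.0 Hepes buffer.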

Sequence of recombinant IL4I1 (Q96RQ9 22-567): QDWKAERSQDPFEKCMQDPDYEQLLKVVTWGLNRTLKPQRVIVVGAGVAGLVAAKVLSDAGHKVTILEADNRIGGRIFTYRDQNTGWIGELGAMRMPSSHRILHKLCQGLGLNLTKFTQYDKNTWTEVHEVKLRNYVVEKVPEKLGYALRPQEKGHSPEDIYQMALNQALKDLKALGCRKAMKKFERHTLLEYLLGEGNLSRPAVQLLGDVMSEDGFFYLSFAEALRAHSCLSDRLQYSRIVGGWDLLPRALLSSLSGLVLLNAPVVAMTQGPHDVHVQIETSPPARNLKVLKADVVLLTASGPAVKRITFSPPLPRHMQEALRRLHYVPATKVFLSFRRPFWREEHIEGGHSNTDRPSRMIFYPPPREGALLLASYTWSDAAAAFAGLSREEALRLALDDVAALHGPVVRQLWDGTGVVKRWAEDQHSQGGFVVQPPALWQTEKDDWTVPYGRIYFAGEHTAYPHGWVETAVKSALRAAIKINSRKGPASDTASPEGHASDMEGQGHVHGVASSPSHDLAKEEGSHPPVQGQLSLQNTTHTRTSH

| Structure (SMILES) | EC50 [nM] |
| --- | --- |
| O=C1C(=O)N(C23CC(C2)C3)CCN1Cc1cc(-c2ccccc2)no1 [Example 171, 1-(bicyclo[1.1.1]pentan-1-yl)-4-((3-phenylisoxazol-5-yl)methyl)piperazine-2,3-dione] | 6 |
| O=c1c(=O)n(C23CC(C2)C3)ccn1Cc1cc(-c2ccccn2)no1 [Example 172, 1-(bicyclo[1.1.1]pentan-1-yl)-4-((3-(pyridin-2-yl)isoxazol-5-yl)methyl)-1,4-dihydropyrazine-2,3-dione] | 7 |
| O=c1c(=O)n(C2CCC2)ccn1Cc1cc(-c2ccccc2)sn1 [Example 173, 1-cyclobutyl-4-((5-phenylisothiazol-3-yl)methyl)-1,4-dihydropyrazine-2,3-dione] | 14 |
| O=C1C(=O)N(C2CCC2)CCN1Cc1cn(-c2ccccc2)cn1 [Example 174, 1-cyclobutyl-4-((1-phenyl-1H-imidazol-4-yl)methyl)piperazine-2,3-dione] | 39 |
| O=c1c(=O)n(C2CCC2)ccn1Cc1cn(-c2ccccc2)cn1 [Example 175, 1-cyclobutyl-4-((1-phenyl-1H-imidazol-4-yl)methyl)-1,4-dihydropyrazine-2,3-dione] | 14 |
| O=C1C(=O)N(C2CCC2)CCN1Cc1ccc(-n2ncnn2)cn1 [Example 176, 1-((5-(2H-tetrazol-2-yl)pyridin-2-yl)methyl)-4-cyclobutylpiperazine-2,3-dione] | 40 |
| O=C1C(=O)N(C2CCC2)CCN1CC12CC(c3ccccn3)(C1)C2 [Example 177, 1-cyclobutyl-4-((3-(pyridin-2-yl)bicyclo[1.1.1]pentan-1-yl)methyl)piperazine-2,3-dione] | 84 |
| CC1CN(Cc2ccc(-n3nccn3)cn2)C(=O)C(=O)N1C1CCC1 (centres unmarked) [Example 178, 1-((5-(2H-1,2,3-triazol-2-yl)pyridin-2-yl)methyl)-4-cyclobutyl-5-methylpiperazine-2,3-dione] | 52 |
| O=C1C(=O)N(C23CC(C2)C3)CCN1Cc1nnc(-c2ccccc2Cl)s1 [Example 179, 1-(bicyclo[1.1.1]pentan-1-yl)-4-((5-(2-chlorophenyl)-1,3,4-thiadiazol-2-yl)methyl)piperazine-2,3-dione] | 13 |
| CC1(n2ccn(Cc3cc(-c4ccccc4)no3)c(=O)c2=O)CCC1 [Example 181, 1-(1-methylcyclobutyl)-4-((3-phenylisoxazol-5-yl)methyl)-1,4-dihydropyrazine-2,3-dione] | 10 |
| O=C1C(=O)N(C2CC3CC2C3)CCN1Cc1ccc(-c2ccccc2)nn1 (centres unmarked) [Example 183, 1-(bicyclo[2.1.1]hexan-2-yl)-4-((6-phenylpyridazin-3-yl)methyl)piperazine-2,3-dione] | 24 |
| O=C1C(=O)N(C2CC3CC2C3)CCN1Cc1ccc(-c2ccccc2F)nn1 (centres unmarked) [Example 184, 1-(bicyclo[2.1.1]hexan-2-yl)-4-((6-(2-fluorophenyl)pyridazin-3-yl)methyl)piperazine-2,3-dione] | 25 |
| CC1(N2CCN(Cc3cc(-c4cccc(F)c4)no3)C(=O)C2=O)CCC1 [Example 185, 1-((3-(3-fluorophenyl)isoxazol-5-yl)methyl)-4-(1-methylcyclobutyl)piperazine-2,3-dione] | 8 |
| CC1(n2ccn(Cc3cc(-c4cccc(F)c4)no3)c(=O)c2=O)CCC1 [Example 186, 1-((3-(3-fluorophenyl)isoxazol-5-yl)methyl)-4-(1-methylcyclobutyl)-1,4-dihydropyrazine-2,3-dione] | 4 |
| O=c1c(=O)n(C23CC(C2)C3)ccn1Cc1cc(-c2nccs2)on1 [Example 187, 1-(bicyclo[1.1.1]pentan-1-yl)-4-((5-(thiazol-2-yl)isoxazol-3-yl)methyl)-1,4-dihydropyrazine-2,3-dione] | 8 |
| CC1(N2CCN(Cc3cc(-c4ccc(F)cc4)no3)C(=O)C2=O)CCC1 [Example 188, 1-((3-(4-fluorophenyl)isoxazol-5-yl)methyl)-4-(1-methylcyclobutyl)piperazine-2,3-dione] | 10 |
| CC1(n2ccn(Cc3cc(-c4ccc(F)cc4)no3)c(=O)c2=O)CCC1 [Example 189, 1-((3-(4-fluorophenyl)isoxazol-5-yl)methyl)-4-(1-methylcyclobutyl)-1,4-dihydropyrazine-2,3-dione] | 4 |
| CC1(N2CCN(CC34CC(c5ccccc5)(C3)C4(F)F)C(=O)C2=O)CCC1 [Example 190, 1-((2,2-difluoro-3-phenylbicyclo[1.1.1]pentan-1-yl)methyl)-4-(1-methylcyclobutyl)piperazine-2,3-dione] | 31 |
| O=C1C(=O)N(C23CC(C2)C3)CCN1CC12CC(c3ccccc3)(C1)C2(F)F [Example 191, 1-(bicyclo[1.1.1]pentan-1-yl)-4-((2,2-difluoro-3-phenylbicyclo[1.1.1]pentan-1-yl)methyl)piperazine-2,3-dione] | 35 |
| O=c1c(=O)n(C2CCC2)ccn1Cc1ccc(-c2c(F)cccc2F)nn1 [Example 192, 1-cyclobutyl-4-((6-(2,6-difluorophenyl)pyridazin-3-yl)methyl)-1,4-dihydropyrazine-2,3-dione] | 13 |

Now from value to compound:

| EC50 [nM] | Structure (SMILES) |
| --- | --- |
| 8 | O=c1c(=O)n(C23CC(C2)C3)ccn1Cc1ccc(-c2ccccc2F)nn1 [Example 193, 1-(bicyclo[1.1.1]pentan-1-yl)-4-((6-(2-fluorophenyl)pyridazin-3-yl)methyl)-1,4-dihydropyrazine-2,3-dione] |
| 41 | O=C1C(=O)N(C2(CF)CC2)CCN1Cc1nnc(-c2ccccc2F)s1 [Example 194, 1-(1-(fluoromethyl)cyclopropyl)-4-((5-(2-fluorophenyl)-1,3,4-thiadiazol-2-yl)methyl)piperazine-2,3-dione] |
| 48 | O=C1C(=O)N(C2(CF)CC2)CCN1Cc1ccc(-c2ccccc2F)nn1 [Example 195, 1-(1-(fluoromethyl)cyclopropyl)-4-((6-(2-fluorophenyl)pyridazin-3-yl)methyl)piperazine-2,3-dione] |
| 11 | O=C1C(=O)N(C2(CF)CC2)CCN1Cc1cc(-c2ccccc2)no1 [Example 196, 1-(1-(fluoromethyl)cyclopropyl)-4-((3-phenylisoxazol-5-yl)methyl)piperazine-2,3-dione] |
| 33 | CC1(n2ccn(Cc3ccc(-c4ccccc4F)nn3)c(=O)c2=O)CC1 [Example 197, 1-((6-(2-fluorophenyl)pyridazin-3-yl)methyl)-4-(1-methylcyclopropyl)-1,4-dihydropyrazine-2,3-dione] |
| 76 | N#CC1(n2ccn(Cc3ccc(-c4ccccc4F)nn3)c(=O)c2=O)CC1 [Example 198, 1-(4-((6-(2-fluorophenyl)pyridazin-3-yl)methyl)-2,3-dioxo-3,4-dihydropyrazin-1(2H)-yl)cyclopropane-1-carbonitrile] |
| 24 | CC1(n2ccn(Cc3cc(-c4ccccn4)no3)c(=O)c2=O)CC1 [Example 199, 1-(1-methylcyclopropyl)-4-((3-(pyridin-2-yl)isoxazol-5-yl)methyl)-1,4-dihydropyrazine-2,3-dione] |
| 68 | N#CC1(n2ccn(Cc3cc(-c4ccccn4)no3)c(=O)c2=O)CC1 [Example 200, 1-(2,3-dioxo-4-((3-(pyridin-2-yl)isoxazol-5-yl)methyl)-3,4-dihydropyrazin-1(2H)-yl)cyclopropane-1-carbonitrile] |
| 30 | O=c1c(=O)n(C23CC(F)(C2)C3)ccn1Cc1ccc(-c2ccccc2F)nn1 [Example 201, 1-(3-fluorobicyclo[1.1.1]pentan-1-yl)-4-((6-(2-fluorophenyl)pyridazin-3-yl)methyl)-1,4-dihydropyrazine-2,3-dione] |
| 44 | CC1(n2ccn(Cc3ccc(-n4nccn4)cn3)c(=O)c2=O)CC1 [Example 202, 1-((5-(2H-1,2,3-triazol-2-yl)pyridin-2-yl)methyl)-4-(1-methylcyclopropyl)-1,4-dihydropyrazine-2,3-dione] |
| 19 | O=c1c(=O)n(C23CC(F)(C2)C3)ccn1Cc1cc(-c2ccccn2)no1 [Example 203, 1-(3-fluorobicyclo[1.1.1]pentan-1-yl)-4-((3-(pyridin-2-yl)isoxazol-5-yl)methyl)-1,4-dihydropyrazine-2,3-dione] |
| 78 | N#CC1(n2ccn(Cc3ccc(-c4nccs4)nn3)c(=O)c2=O)CC1 [Example 204, 1-(2,3-dioxo-4-((6-(thiazol-2-yl)pyridazin-3-yl)methyl)-3,4-dihydropyrazin-1(2H)-yl)cyclopropane-1-carbonitrile] |
| 24 | O=c1c(=O)n(C23CC(F)(C2)C3)ccn1Cc1ccc(-c2nccs2)nn1 [Example 205, 1-(3-fluorobicyclo[1.1.1]pentan-1-yl)-4-((6-(thiazol-2-yl)pyridazin-3-yl)methyl)-1,4-dihydropyrazine-2,3-dione] |
| 28 | CC1(n2ccn(Cc3cc(-c4ccccn4)on3)c(=O)c2=O)CC1 [Example 206, 1-(1-methylcyclopropyl)-4-((5-(pyridin-2-yl)isoxazol-3-yl)methyl)-1,4-dihydropyrazine-2,3-dione] |
| 43 | N#CC1(n2ccn(Cc3cc(-c4ccccn4)on3)c(=O)c2=O)CC1 [Example 207, 1-(2,3-dioxo-4-((5-(pyridin-2-yl)isoxazol-3-yl)methyl)-3,4-dihydropyrazin-1(2H)-yl)cyclopropane-1-carbonitrile] |
| 21 | O=c1c(=O)n(C23CC(F)(C2)C3)ccn1Cc1cc(-c2ccccn2)on1 [Example 208, 1-(3-fluorobicyclo[1.1.1]pentan-1-yl)-4-((5-(pyridin-2-yl)isoxazol-3-yl)methyl)-1,4-dihydropyrazine-2,3-dione] |
| 26 | CC1(n2ccn(Cc3cc(-c4cccnc4)on3)c(=O)c2=O)CC1 [Example 209, 1-(1-methylcyclopropyl)-4-((5-(pyridin-3-yl)isoxazol-3-yl)methyl)-1,4-dihydropyrazine-2,3-dione] |
| 92 | N#CC1(n2ccn(Cc3cc(-c4cccnc4)on3)c(=O)c2=O)CC1 [Example 210, 1-(2,3-dioxo-4-((5-(pyridin-3-yl)isoxazol-3-yl)methyl)-3,4-dihydropyrazin-1(2H)-yl)cyclopropane-1-carbonitrile] |
